The source made the active and inactive calls. The calls are words filed in the database; no cut-off is given here.
biological target: Replicase polyprotein 1ab (Severe acute respiratory syndrome coronavirus 2) (UniProt P0DTD1); assay: Uncompetitive inhibition of SARS-Cov-2 Main protease by Lineweaver-Burk plot analysis

SMILES | inhibition
O=C(O)C1=C(C(=O)N(Cc2ccccc2)Cc2ccccc2)CN2C[C@H](NC(=O)[C@H](Cc3ccccc3)NC(=O)c3cc4ccccc4[nH]3)C(=O)N12 | Active

biological target: Replicase polyprotein 1ab (Severe acute respiratory syndrome coronavirus 2) (UniProt P0DTD1); assay: Inhibition of SARS-Cov-2 Main protease at <=500 uM by FRET assay

SMILES | inhibition
C[C@@H](O)[C@H]1C(=O)N2C(C(=O)O)=C(SCCNC=N)C[C@H]12 | inactive
N[C@@H]1CONC1=O | inactive
N[C@@H]1C(=O)N2C(C(=O)O)=C(Cl)CS[C@H]12 | inactive
CCC1C(=O)N(S(C)(=O)=O)CC1C(=O)OC (racemic; 11) | inactive
C[C@@H](O)[C@H]1C(=O)N2C(C(=O)O)=C([C@H]3CCCO3)S[C@H]12 | inactive
NC(=O)[C@@H]1CC[C@@H]2CN1C(=O)N2OS(=O)(=O)O | inactive
C[C@H]1[C@H](N)C(=O)N1S(=O)(=O)O | inactive
N[C@H]1CN2CC(C(=O)N(Cc3ccccc3)Cc3ccccc3)=C(C(=O)O)N2C1=O | inactive
CC1(C)[C@H](C(=O)O)N2C(=O)C[C@H]2S1(=O)=O | inactive
CC1(C)S[C@@H]2[C@H](N)C(=O)N2[C@H]1C(=O)O | inactive
CCC1C(=O)N(S(C)(=O)=O)CC1C(=O)OC (racemic; 10) | inactive

biological target: Replicase polyprotein 1ab (Severe acute respiratory syndrome coronavirus 2, UniProt P0DTD1); assay: Inhibition of SARS-Cov-2 Main protease by FRET assay

SMILES | IC50 [µM]
CN(Cc1ccccc1)C(=O)C1=C(C(=O)O)N2C(=O)[C@@H](NC(=O)[C@H](Cc3ccccc3)NC(=O)c3cc4ccccc4[nH]3)CN2C1 | > 500
O=C(O)C1=C(C(=O)N(Cc2ccccc2)Cc2ccccc2)CN2C[C@H](NC(=O)[C@H](C[C@@H]3CCNC3=O)NC(=O)[C@H](Cc3ccccc3)NC(=O)c3cc4ccccc4[nH]3)C(=O)N12 | 163
C=CCOC(=O)C1=C(C(=O)O)N2C(=O)[C@@H](NC(=O)[C@H](Cc3ccccc3)NC(=O)c3cc4ccccc4[nH]3)CN2C1 | 192
O=C(N[C@@H](Cc1ccccc1)C(=O)O)c1cc2ccccc2[nH]1 | > 500
O=C(O)C1=C(C(=O)NCc2ccncc2)CN2C[C@H](NC(=O)[C@H](Cc3ccccc3)NC(=O)c3cc4ccccc4[nH]3)C(=O)N12 | 201
O=C(O)C1=C(Cl)CS[C@@H]2[C@H](NC(=O)[C@H](Cc3ccccc3)NC(=O)c3cc4ccccc4[nH]3)C(=O)N12 | 90
C[C@H]1[C@H](NC(=O)[C@H](Cc2ccccc2)NC(=O)c2cc3ccccc3[nH]2)C(=O)N1S(=O)(=O)O | > 500
O=C(O)C1=C(C(=O)N(Cc2ccccc2)Cc2ccccc2)CN2C[C@H](NC(=O)[C@H](Cc3ccccc3)NC(=O)c3cc4ccccc4[nH]3)C(=O)N12 | 45
O=C(O)C1=C(C(=O)N2CCCC2)CN2C[C@H](NC(=O)[C@H](Cc3ccccc3)NC(=O)c3cc4ccccc4[nH]3)C(=O)N12 | 181
CC1(C)S[C@@H]2[C@H](NC(=O)[C@H](Cc3ccccc3)NC(=O)c3cc4ccccc4[nH]3)C(=O)N2[C@H]1C(=O)O | 134
N[C@H]1CN2CC(C(=O)N(Cc3ccccc3)Cc3ccccc3)=C(C(=O)O)N2C1=O | > 500
CCN(CC)C(=O)C1=C(C(=O)O)N2C(=O)[C@@H](NC(=O)[C@H](Cc3ccccc3)NC(=O)c3cc4ccccc4[nH]3)CN2C1 | 279
O=C(N[C@@H](Cc1ccccc1)C(=O)N[C@@H]1CONC1=O)c1cc2ccccc2[nH]1 | > 500
O=C(O)C1=C(C(=O)NCc2ccccc2)CN2C[C@H](NC(=O)[C@H](Cc3ccccc3)NC(=O)c3cc4ccccc4[nH]3)C(=O)N12 | 178

biological target: T1, Cathepsin K (Homo sapiens, UniProt P43235); assay: Inhibition of human Cathepsin K
T1 sequence (P43235 whole entry): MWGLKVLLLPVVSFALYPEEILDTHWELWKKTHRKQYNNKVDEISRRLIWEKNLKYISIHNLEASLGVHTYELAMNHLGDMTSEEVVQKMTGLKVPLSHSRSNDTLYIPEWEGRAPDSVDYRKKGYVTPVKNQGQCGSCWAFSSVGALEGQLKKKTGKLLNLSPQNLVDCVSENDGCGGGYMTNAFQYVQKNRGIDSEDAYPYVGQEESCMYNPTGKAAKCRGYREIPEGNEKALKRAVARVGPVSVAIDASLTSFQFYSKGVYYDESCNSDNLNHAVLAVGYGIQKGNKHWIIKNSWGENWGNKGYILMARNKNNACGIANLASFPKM

SMILES | IC50 [µM]
O=C(O)C1=C(C(=O)N(Cc2ccccc2)Cc2ccccc2)CN2C[C@H](NC(=O)[C@H](Cc3ccccc3)NC(=O)c3cc4ccccc4[nH]3)C(=O)N12 | 64

Reference: ChEMBL document CHEMBL5390251, “Pyrazolidinone-based peptidomimetic SARS-CoV-2 Mpro inhibitors” (Bioorg Med Chem Lett, 2023)
